Laboratory results reported in PubChem BioAssay AID1963979 (Molecular Pharmacology Branch, DTP, NCI, 2024).
Each block holds one molecule with its values, some of them ahead of it.

Tested on: 361931-004-R-J1-PDC multicell spheroid viability
Experiment: Anticancer human tumor 361931-004-R-J1-PDC patient-derived colon adenocarcinoma cell line growth inhibition [PI3K]
Conditions: for IC50: curve of first compound; for viability, T/C: stronger effect = lower value
How it was run: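 Three cell types, namely tumor cells, endothelial cells and mesenchymal stem cells, formed each spheroid. Combinations with four PI3K inhibitors were screened at clinically achievable concentrations decreasing by half-log, and spheroid viability was recorded.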

[1] = second compound 0.0316 µM, first compound 0.0316 µM
[2] = second compound 0.0316 µM, first compound 0.1 µM
[3] = second compound 0.0316 µM, first compound 0.316 µM
[4] = second compound 0.0316 µM, first compound 1 µM
[5] = second compound 0.0316 µM, first compound 3.16 µM
[6] = second compound 0.0316 µM, first compound 10 µM
[7] = second compound 0.1 µM, first compound 0.0316 µM
[8] = second compound 0.1 µM, first compound 0.1 µM
[9] = second compound 0.1 µM, first compound 0.316 µM
[10] = second compound 0.1 µM, first compound 1 µM
[11] = second compound 0.1 µM, first compound 3.16 µM
[12] = second compound 0.1 µM, first compound 10 µM
[13] = second compound 0.316 µM, first compound 0.0316 µM
[14] = second compound 0.316 µM, first compound 0.1 µM
[15] = second compound 0.316 µM, first compound 0.316 µM
[16] = second compound 0.316 µM, first compound 1 µM
[17] = second compound 0.316 µM, first compound 3.16 µM
[18] = second compound 0.316 µM, first compound 10 µM
[19] = second compound 1 µM, first compound 0.0316 µM
[20] = second compound 1 µM, first compound 0.1 µM
[21] = second compound 1 µM, first compound 0.316 µM
[22] = second compound 1 µM, first compound 1 µM
[23] = second compound 1 µM, first compound 3.16 µM
[24] = second compound 1 µM, first compound 10 µM
[25] = second compound 3.16 µM, first compound 0.0316 µM
[26] = second compound 3.16 µM, first compound 0.1 µM
[27] = second compound 3.16 µM, first compound 0.316 µM
[28] = second compound 3.16 µM, first compound 1 µM
[29] = second compound 3.16 µM, first compound 3.16 µM
[30] = second compound 3.16 µM, first compound 10 µM
[31] = second compound 10 µM, first compound 0.0316 µM
[32] = second compound 10 µM, first compound 0.1 µM
[33] = second compound 10 µM, first compound 0.316 µM
[34] = second compound 10 µM, first compound 1 µM
[35] = second compound 10 µM, first compound 3.16 µM
[36] = second compound 10 µM, first compound 10 µM
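Also: spheroids exposed to agents for seven days before readout.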

- IC50 (second compound 0.0316 µM): 4920 nM
- IC50 (second compound 0.1 µM): 5570 nM
- IC50 (second compound 0.316 µM): 5010 nM
- IC50 (second compound 1 µM): 3500 nM
- IC50 (second compound 3.16 µM): 2090 nM
- IC50 (second compound 10 µM): 624 nM
Structure (SMILES): CCCS(=O)(=O)Nc1ccc(F)c(C(=O)c2c[nH]c3ncc(-c4ccc(Cl)cc4)cc23)c1F + Cc1nc(NC(=O)N2CCCC2C(N)=O)sc1-c1ccnc(C(C)(C)C(F)(F)F)c1
- viability, T/C [1]: 96.2%
- viability, T/C [2]: 101%
- viability, T/C [3]: 88.6%
- viability, T/C [4]: 99.7%
- viability, T/C [5]: 78.4%
- viability, T/C [6]: 4.57%
- viability, T/C [7]: 107%
- viability, T/C [8]: 86.1%
- viability, T/C [9]: 87.2%
- viability, T/C [10]: 91.6%
- viability, T/C [11]: 95.5%
- viability, T/C [12]: 4.97%
- viability, T/C [13]: 94.3%
- viability, T/C [14]: 92.1%
- viability, T/C [15]: 80.7%
- viability, T/C [16]: 86.9%
- viability, T/C [17]: 80.5%
- viability, T/C [18]: 4.14%
- viability, T/C [19]: 89.2%
- viability, T/C [20]: 88.8%
- viability, T/C [21]: 75.9%
- viability, T/C [22]: 73.3%
- viability, T/C [23]: 57.3%
- viability, T/C [24]: 3.96%
- viability, T/C [25]: 77.1%
- viability, T/C [26]: 75.2%
- viability, T/C [27]: 60.3%
- viability, T/C [28]: 59.1%
- viability, T/C [29]: 48.7%
- viability, T/C [30]: 3.13%
- viability, T/C [31]: 70.6%
- viability, T/C [32]: 68.6%
- viability, T/C [33]: 54.2%
- viability, T/C [34]: 43.5%
- viability, T/C [35]: 30.7%
- viability, T/C [36]: 1.96%

- IC50 (second compound 0.00316 µM): > 10000 nM
- IC50 (second compound 0.01 µM): > 10000 nM
- IC50 (second compound 0.0316 µM): > 10000 nM
- IC50 (second compound 0.1 µM): > 10000 nM
- IC50 (second compound 0.316 µM): > 10000 nM
- IC50 (second compound 1 µM): > 10000 nM
Structure (SMILES): CNC(=O)c1ccc(N2C(=S)N(c3ccc(C#N)c(C(F)(F)F)c3)C(=O)C2(C)C)cc1F + CC(Nc1ccc2c(c1)OCCn1cc(N3C(=O)OCC3C(F)F)nc1-2)C(N)=O
- viability, T/C (second compound 0.00316 µM, first compound 0.0316 µM): 110%
- viability, T/C (second compound 0.00316 µM, first compound 0.1 µM): 101%
- viability, T/C (second compound 0.00316 µM, first compound 0.316 µM): 101%
- viability, T/C (second compound 0.00316 µM, first compound 1 µM): 92.8%
- viability, T/C (second compound 0.00316 µM, first compound 3.16 µM): 110%
- viability, T/C (second compound 0.00316 µM, first compound 10 µM): 93.7%
- viability, T/C (second compound 0.01 µM, first compound 0.0316 µM): 109%
- viability, T/C (second compound 0.01 µM, first compound 0.1 µM): 102%
- viability, T/C (second compound 0.01 µM, first compound 0.316 µM): 85.2%
- viability, T/C (second compound 0.01 µM, first compound 1 µM): 104%
- viability, T/C (second compound 0.01 µM, first compound 3.16 µM): 103%
- viability, T/C (second compound 0.01 µM, first compound 10 µM): 90.4%
- viability, T/C [1]: 107%
- viability, T/C [2]: 103%
- viability, T/C [3]: 105%
- viability, T/C [4]: 102%
- viability, T/C [5]: 105%
- viability, T/C [6]: 82.4%
- viability, T/C [7]: 94.6%
- viability, T/C [8]: 99.1%
- viability, T/C [9]: 93.1%
- viability, T/C [10]: 100%
- viability, T/C [11]: 97.4%
- viability, T/C [12]: 86.4%
- viability, T/C [13]: 88.1%
- viability, T/C [14]: 94%
- viability, T/C [15]: 88.6%
- viability, T/C [16]: 87.9%
- viability, T/C [17]: 87.5%
- viability, T/C [18]: 76%
- viability, T/C [19]: 75.9%
- viability, T/C [20]: 82.1%
- viability, T/C [21]: 79.3%
- viability, T/C [22]: 78%
- viability, T/C [23]: 76.1%
- viability, T/C [24]: 79.6%

- IC50 (second compound 0.0316 µM): 1380 nM
- IC50 (second compound 0.1 µM): 1520 nM
- IC50 (second compound 0.316 µM): 1090 nM
- IC50 (second compound 1 µM): 1080 nM
- IC50 (second compound 3.16 µM): 1020 nM
- IC50 (second compound 10 µM): 631 nM
Structure (SMILES): CC(C)NCC(C(=O)N1CCN(c2ncnc3c2C(C)CC3O)CC1)c1ccc(Cl)cc1 (stereo not drawn) + Cc1nc(NC(=O)N2CCCC2C(N)=O)sc1-c1ccnc(C(C)(C)C(F)(F)F)c1
- viability, T/C [1]: 96.2%
- viability, T/C [2]: 102%
- viability, T/C [3]: 85.4%
- viability, T/C [4]: 56.2%
- viability, T/C [5]: 34.5%
- viability, T/C [6]: 27%
- viability, T/C [7]: 97%
- viability, T/C [8]: 87.4%
- viability, T/C [9]: 94.3%
- viability, T/C [10]: 60.2%
- viability, T/C [11]: 30.7%
- viability, T/C [12]: 17.6%
- viability, T/C [13]: 96.8%
- viability, T/C [14]: 93.9%
- viability, T/C [15]: 68.5%
- viability, T/C [16]: 51.5%
- viability, T/C [17]: 34.2%
- viability, T/C [18]: 18.1%
- viability, T/C [19]: 87.9%
- viability, T/C [20]: 96.7%
- viability, T/C [21]: 76.8%
- viability, T/C [22]: 50.6%
- viability, T/C [23]: 29.6%
- viability, T/C [24]: 16.7%
- viability, T/C [25]: 72.3%
- viability, T/C [26]: 84%
- viability, T/C [27]: 73.9%
- viability, T/C [28]: 46.6%
- viability, T/C [29]: 29.7%
- viability, T/C [30]: 13.4%
- viability, T/C [31]: 62.1%
- viability, T/C [32]: 56.8%
- viability, T/C [33]: 63.4%
- viability, T/C [34]: 42.4%
- viability, T/C [35]: 21.6%
- viability, T/C [36]: 11.9%

- IC50 (second compound 0.0316 µM): > 100 nM
- IC50 (second compound 0.1 µM): > 100 nM
- IC50 (second compound 0.316 µM): > 100 nM
- IC50 (second compound 1 µM): > 100 nM
- IC50 (second compound 3.16 µM): > 100 nM
- IC50 (second compound 10 µM): > 100 nM
Structure (SMILES): CC(C)n1nc(-c2ccc3oc(N)nc3c2)c2c(N)ncnc21 + CC(Nc1ncnc2nc[nH]c12)c1cc2cccc(Cl)c2c(=O)n1-c1ccccc1
- viability, T/C (second compound 0.0316 µM, first compound 0.000316 µM): 103%
- viability, T/C (second compound 0.0316 µM, first compound 0.001 µM): 107%
- viability, T/C (second compound 0.0316 µM, first compound 0.00316 µM): 105%
- viability, T/C (second compound 0.0316 µM, first compound 0.01 µM): 104%
- viability, T/C [1]: 108%
- viability, T/C [2]: 77.9%
- viability, T/C (second compound 0.1 µM, first compound 0.000316 µM): 111%
- viability, T/C (second compound 0.1 µM, first compound 0.001 µM): 106%
- viability, T/C (second compound 0.1 µM, first compound 0.00316 µM): 104%
- viability, T/C (second compound 0.1 µM, first compound 0.01 µM): 99.1%
- viability, T/C [7]: 107%
- viability, T/C [8]: 81.5%
- viability, T/C (second compound 0.316 µM, first compound 0.000316 µM): 98.2%
- viability, T/C (second compound 0.316 µM, first compound 0.001 µM): 103%
- viability, T/C (second compound 0.316 µM, first compound 0.00316 µM): 108%
- viability, T/C (second compound 0.316 µM, first compound 0.01 µM): 109%
- viability, T/C [13]: 115%
- viability, T/C [14]: 74.8%
- viability, T/C (second compound 1 µM, first compound 0.000316 µM): 97.4%
- viability, T/C (second compound 1 µM, first compound 0.001 µM): 105%
- viability, T/C (second compound 1 µM, first compound 0.00316 µM): 104%
- viability, T/C (second compound 1 µM, first compound 0.01 µM): 107%
- viability, T/C [19]: 105%
- viability, T/C [20]: 72.3%
- viability, T/C (second compound 3.16 µM, first compound 0.000316 µM): 109%
- viability, T/C (second compound 3.16 µM, first compound 0.001 µM): 106%
- viability, T/C (second compound 3.16 µM, first compound 0.00316 µM): 100%
- viability, T/C (second compound 3.16 µM, first compound 0.01 µM): 96.2%
- viability, T/C [25]: 100%
- viability, T/C [26]: 72.4%
- viability, T/C (second compound 10 µM, first compound 0.000316 µM): 107%
- viability, T/C (second compound 10 µM, first compound 0.001 µM): 107%
- viability, T/C (second compound 10 µM, first compound 0.00316 µM): 107%
- viability, T/C (second compound 10 µM, first compound 0.01 µM): 104%
- viability, T/C [31]: 103%
- viability, T/C [32]: 63.5%
